Experimental data taken from ChEMBL document CHEMBL1671637, “Development, stability, and molecular mechanisms of macrolide resistance in Campylobacter jejuni” (2008).
Converted amounts (≈) assume the structure as drawn.

How the values were obtained:
Campylobacter jejuni [1] = assay: Antimicrobial activity against Campylobacter jejuni DC36 harboring protein L4 G74D mutant by agar dilution method; format: functional
Campylobacter jejuni [2] = assay: Antimicrobial activity against Campylobacter jejuni DC22 harboring protein L4 G74D mutant by agar dilution method; format: functional
Campylobacter jejuni [3] = assay: Antimicrobial activity against Campylobacter jejuni JL290 harboring protein L22 with insertion of amino acid TSH at position 98 selected at 8 ug/ml after 3 to 4 days by agar dilution method; format: functional
Campylobacter jejuni [4] = assay: Antimicrobial activity against Campylobacter jejuni DC19 harboring protein L4 G57D mutant by agar dilution method
Campylobacter jejuni [5] = assay: Antimicrobial activity against Campylobacter jejuni JL302 harboring protein L22 with insertion of amino acid TSH at position 98 selected at 4 to 16 times MIC after 3 to 4 days by agar dilution method; format: functional
Campylobacter jejuni [6] = assay: Antimicrobial activity against Campylobacter jejuni JL291 harboring protein L22 with insertion of amino acid TSH at position 98 selected at 4 to 16 times MIC after 3 to 4 days by agar dilution method; format: functional
Campylobacter jejuni [7] = assay: Antimicrobial activity against Campylobacter jejuni JL295 selected at 2 ug/ml after 3 to 4 days by agar dilution method; format: functional
Campylobacter jejuni [8] = assay: Antimicrobial activity against Campylobacter jejuni DC16 harboring protein L4 G74D mutant by agar dilution method; format: functional
Campylobacter jejuni [9] = assay: Antimicrobial activity against Campylobacter jejuni DC37 harboring protein L4 G74D mutant by agar dilution method; format: functional
Campylobacter jejuni [10] = assay: Antimicrobial activity against Campylobacter jejuni NCTC 11168 by agar dilution method; format: functional
Campylobacter jejuni [11] = assay: Antimicrobial activity against Campylobacter jejuni JL306 harboring protein L22 with insertion of amino acid TSH at position 98 selected at 4 to 16 times MIC after 3 to 4 days by agar dilution method; format: functional
Campylobacter jejuni [12] = assay: Antimicrobial activity against Campylobacter jejuni harboring mutation in cmeB by agar dilution method relative to wild type Campylobacter jejuni; format: functional
Campylobacter jejuni [13] = assay: Antimicrobial activity against Campylobacter jejuni DC2 infected in 15 days old chicken by agar dilution method in presence of feed with tylosin; format: functional
Campylobacter jejuni [14] = assay: Antimicrobial activity against Campylobacter jejuni DC18 harboring protein L4 G74D mutant by agar dilution method; format: functional
Campylobacter jejuni [15] = assay: Antimicrobial activity against Campylobacter jejuni DC6 infected in 3 days old chicken by agar dilution method; format: functional
Campylobacter jejuni [16] = assay: Antimicrobial activity against compound-resistant Campylobacter jejuni; format: functional
Campylobacter jejuni [17] = assay: Antimicrobial activity against Campylobacter jejuni DC24 harboring protein L4 G74D mutant by agar dilution method; format: functional
Campylobacter jejuni [18] = assay: Antimicrobial activity against Campylobacter jejuni DC29 by agar dilution method; format: functional
Campylobacter jejuni [19] = assay: Antimicrobial activity against Campylobacter jejuni JL294 selected at 4 to 16 times MIC after 3 to 4 days by agar dilution method; format: functional
Campylobacter jejuni [20] = assay: Antimicrobial activity against Campylobacter jejuni JL279 selected at 4 to 16 times MIC after 3 to 4 days by agar dilution method; format: functional
Campylobacter jejuni [21] = assay: Antimicrobial activity against Campylobacter jejuni DC11 by agar dilution method; format: functional
Campylobacter jejuni [22] = assay: Antimicrobial activity against Campylobacter jejuni DC39 harboring protein L4 G74D and G57V mutant by agar dilution method; format: functional
Campylobacter jejuni [23] = assay: Antimicrobial activity against Campylobacter jejuni JL303 harboring protein L22 with insertion of amino acid TSH at position 98 selected at 4 to 16 times MIC after 3 to 4 days by agar dilution method; format: functional
Campylobacter jejuni [24] = assay: Antimicrobial activity against Campylobacter jejuni DC9 harboring 23S rRNA A2074G mutant by agar dilution method; format: functional
Campylobacter jejuni [25] = assay: Antimicrobial activity against Campylobacter jejuni JL285 selected at 4 to 16 times MIC after 3 to 4 days by agar dilution method; format: functional
Campylobacter jejuni [26] = assay: Antimicrobial activity against tylosin pre-exposed compound-resistant Campylobacter jejuni; format: functional
Campylobacter jejuni [27] = assay: Antimicrobial activity against Campylobacter jejuni DC15 harboring protein L4 G74D mutant by agar dilution method; format: functional
Campylobacter jejuni [28] = assay: Antimicrobial activity against Campylobacter jejuni DC14 harboring protein L4 G57D mutant by agar dilution method
Campylobacter jejuni [29] = assay: Antimicrobial activity against Campylobacter jejuni JL284 selected at 4 to 16 times MIC after 3 to 4 days by agar dilution method; format: functional
Campylobacter jejuni [30] = assay: Antimicrobial activity against Campylobacter jejuni JL293 selected at 4 to 16 times MIC after 3 to 4 days by agar dilution method; format: functional
Campylobacter jejuni [31] = assay: Antimicrobial activity against Campylobacter jejuni DC2 harboring protein L4 G74D mutant by agar dilution method; format: functional
Campylobacter jejuni [32] = assay: Antimicrobial activity against Campylobacter jejuni JL305 harboring protein L22 with insertion of amino acid TSH at position 98 selected at 4 to 16 times MIC after 3 to 4 days by agar dilution method; format: functional
Campylobacter jejuni [33] = assay: Antimicrobial activity against Campylobacter jejuni JL287 harboring 23S rRNA A2074C mutant selected at 4 to 16 times MIC after 3 to 4 days by agar dilution method; format: functional
Campylobacter jejuni [34] = assay: Antimicrobial activity against Campylobacter jejuni JL298 selected at 4 to 16 times MIC after 3 to 4 days by agar dilution method; format: functional
Campylobacter jejuni [35] = assay: Antimicrobial activity against Campylobacter jejuni DC25 harboring protein L4 G74D mutant by agar dilution method; format: functional
Campylobacter jejuni [36] = assay: Antimicrobial activity against Campylobacter jejuni JL286 selected at 4 to 16 times MIC after 3 to 4 days by agar dilution method; format: functional
Campylobacter jejuni [37] = assay: Antimicrobial activity against Campylobacter jejuni JL299 harboring protein L22 with insertion of amino acid TSH at position 98 selected at 4 to 16 times MIC after 3 to 4 days by agar dilution method; format: functional
Campylobacter jejuni [38] = assay: Antimicrobial activity against Campylobacter jejuni DC21 harboring protein L4 G74D mutant by agar dilution method; format: functional

Work on `CC[C@H]1OC(=O)[C@H](C)[C@@H](O[C@H]2C[C@@](C)(OC)[C@@H](O)[C@H](C)O2)[C@H](C)[C@@H](O[C@@H]2O[C@H](C)C[C@H](N(C)C)[C@H]2O)[C@](C)(O)C[C@@H](C)C(=O)[C@H](C)[C@@H](O)[C@]1(C)O` [ERYTHROMYCIN] yielded an MIC (Campylobacter jejuni [1]) of 128 µg/mL (≈ 174 µM), an MIC (Campylobacter jejuni [2]) of 32 µg/mL (≈ 43.6 µM) and an MIC (Campylobacter jejuni [3]) of 32 µg/mL (≈ 43.6 µM). It also gave an MIC (Campylobacter jejuni [4]) of 16 µg/mL (≈ 21.8 µM), an MIC (Campylobacter jejuni [5]) of 512 µg/mL (≈ 698 µM) and an MIC (Campylobacter jejuni [6]) of 32 µg/mL (≈ 43.6 µM). It also gave an MIC (Campylobacter jejuni [7]) of 8 µg/mL (≈ 10.9 µM), an MIC (Campylobacter jejuni [8]) of 32 µg/mL (≈ 43.6 µM) and an MIC (Campylobacter jejuni [9]) of 128 µg/mL (≈ 174 µM). For the same molecule, the MIC (Campylobacter jejuni [10]) was 1 µg/mL (≈ 1.36 µM), the MIC (Campylobacter jejuni [11]) was 64 µg/mL (≈ 87.2 µM) and the “fold change (FC)” value (Campylobacter jejuni [12]) was 8. It also gave an MIC (Campylobacter jejuni [13]) of 32 µg/mL, an MIC (Campylobacter jejuni [14]) of 16 µg/mL (≈ 21.8 µM) and an MIC (Campylobacter jejuni [15]) greater than 512 µg/mL. It also gave an MIC (Campylobacter jejuni [16]) of 8 µg/mL (≈ 10.9 µM), an MIC (Campylobacter jejuni [17]) of 32 µg/mL (≈ 43.6 µM) and an MIC (Campylobacter jejuni [18]) of 4 µg/mL (≈ 5.45 µM). The MIC (Campylobacter jejuni [19]) was 8 µg/mL (≈ 10.9 µM), the MIC (Campylobacter jejuni [20]) was 8 µg/mL (≈ 10.9 µM) and the MIC (Campylobacter jejuni [21]) was 64 µg/mL (≈ 87.2 µM). The MIC (Campylobacter jejuni [22]) was 256 µg/mL (≈ 349 µM), the MIC (Campylobacter jejuni [23]) was 256 µg/mL (≈ 349 µM) and the MIC (Campylobacter jejuni [24]) was greater than 512 µg/mL. The MIC (Campylobacter jejuni [25]) was 128 µg/mL (≈ 174 µM), the MIC (Campylobacter jejuni [26]) was greater than 512 µg/mL and the MIC (Campylobacter jejuni [27]) was 32 µg/mL (≈ 43.6 µM). The MIC (Campylobacter jejuni [28]) was 32 µg/mL (≈ 43.6 µM), the MIC (Campylobacter jejuni [29]) was 128 µg/mL (≈ 174 µM) and the MIC (Campylobacter jejuni [30]) was 8 µg/mL (≈ 10.9 µM). The MIC (Campylobacter jejuni [31]) was 32 µg/mL (≈ 43.6 µM), the MIC (Campylobacter jejuni [32]) was 256 µg/mL (≈ 349 µM) and the MIC (Campylobacter jejuni [33]) was greater than 512 µg/mL. The MIC (Campylobacter jejuni [34]) was 8 µg/mL (≈ 10.9 µM), the MIC (Campylobacter jejuni [35]) was 64 µg/mL (≈ 87.2 µM) and the MIC (Campylobacter jejuni [36]) was 128 µg/mL (≈ 174 µM). The MIC (Campylobacter jejuni [37]) was 64 µg/mL (≈ 87.2 µM) and the MIC (Campylobacter jejuni [38]) was 32 µg/mL (≈ 43.6 µM).
